Test results published in PubChem BioAssay AID686917 (Sanford-Burnham Center for Chemical Genomics, 2013).
“And” between values parts separate entries of the source, which are not always exact repeats. Equal entries are not always repeated. The source made the active and inactive calls.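 How the source made its calls: active means IC50 at or below 100 µM in the confirmatory dose response; inactive means the rest.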

Target: 26S proteasome non-ATPase regulatory subunit 14 (Homo sapiens) (UniProt O00487)
Test: inhibition of proteasome Rpn11 deubiquitination – biochemical, fluorescence polarization, human 26S proteasome, uHTS hits, dose response (AID 686917)
Conditions: purified human 26S proteasome, Ub4-pepOG fluorescence polarization

26S proteasome non-ATPase regulatory subunit 14 (Homo sapiens), sequence (O00487 whole entry, looked up): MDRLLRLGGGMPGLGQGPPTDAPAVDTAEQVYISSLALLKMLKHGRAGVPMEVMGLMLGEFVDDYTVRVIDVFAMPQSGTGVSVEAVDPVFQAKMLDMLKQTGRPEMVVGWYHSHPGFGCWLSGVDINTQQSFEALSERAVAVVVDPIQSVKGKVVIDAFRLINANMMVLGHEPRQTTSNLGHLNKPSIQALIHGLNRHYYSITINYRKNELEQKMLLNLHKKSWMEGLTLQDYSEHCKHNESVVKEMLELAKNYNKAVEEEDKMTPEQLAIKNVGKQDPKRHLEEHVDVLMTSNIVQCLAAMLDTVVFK

SMILES | IC50
C[C@@H](C(=O)O)N(C)C(=O)c1cnc2c(SSc3cccc4cc(C(=O)N(C)[C@@H](C)C(=O)O)cnc34)cccc2c1 | 5.84 µM
O=C(Sc1cccc2cccnc12)c1c(Cl)cccc1Cl | 1.48 µM
COC(=O)[C@@H](NC(=O)c1cnc2c(SSc3cccc4cc(C(=O)N[C@H](C(=O)OC)C(C)C)cnc34)cccc2c1)C(C)C | 4 µM
COC(=O)[C@H](C)N(C)C(=O)c1cnc2c(SSc3cccc4cc(C(=O)N(C)[C@@H](C)C(=O)OC)cnc34)cccc2c1 | 4.31 µM
COC(=O)[C@@H]1CCCN1C(=O)c1cnc2c(SSc3cccc4cc(C(=O)N5CCC[C@H]5C(=O)OC)cnc34)cccc2c1 | 3.42 µM
O=C(O)c1cnc2c(SSc3cccc4cc(C(=O)O)cnc34)cccc2c1 | 1.26 µM
O=C(Sc1cccc2cccnc12)C1CCCCC1 | 0.663 µM
COc1ccccc1C(=O)Sc1cccc2cccnc12 | 4.59 µM and 2.1 µM
O=C(Sc1cccc2cccnc12)c1cccc2ccccc12 | 3.97 µM
CC(C)(C)OC(=O)CCNC(=O)c1cnc2c(SSc3cccc4cc(C(=O)NCCC(=O)OC(C)(C)C)cnc34)cccc2c1 | 4.9 µM
CC(C)C[C@H](NC(=O)c1cnc2c(SSc3cccc4cc(C(=O)N[C@@H](CC(C)C)C(=O)O)cnc34)cccc2c1)C(=O)O | 2.54 µM
COC(=O)[C@H](CO)NC(=O)c1cnc2c(SSc3cccc4cc(C(=O)N[C@@H](CO)C(=O)OC)cnc34)cccc2c1 | 4.86 µM
O=C(O)[C@@H]1CCCN1C(=O)c1cnc2c(SSc3cccc4cc(C(=O)N5CCC[C@H]5C(=O)O)cnc34)cccc2c1 | 1.7 µM
COC(=O)c1cnc2c(SSc3cccc4cc(C(=O)OC)cnc34)cccc2c1 | 3.4 µM
COC(=O)[C@H](C)NC(=O)c1ccnc2c(SSc3cccc4c(C(=O)N[C@@H](C)C(=O)OC)ccnc34)cccc12 | 4.36 µM
CC[C@@H](C)[C@H](NC(=O)c1cnc2c(SSc3cccc4cc(C(=O)N[C@H](C(=O)OC)[C@@H](C)CC)cnc34)cccc2c1)C(=O)OC | 1.77 µM
CCOc1ccccc1C(=O)Sc1cccc2cccnc12 | 3.7 µM and 14.4 µM
COC(=O)[C@H](C)NC(=O)c1cnc2c(SSc3cccc4cc(C(=O)N[C@@H](C)C(=O)OC)cnc34)cccc2c1 | 5.01 µM
COC(=O)[C@H](CC(C)C)NC(=O)c1cnc2c(SSc3cccc4cc(C(=O)N[C@@H](CC(C)C)C(=O)OC)cnc34)cccc2c1 | 5.32 µM
O=C(Sc1cccc2cccnc12)c1ccc(F)cc1F | 9.67 µM
CC[C@@H](C)[C@H](NC(=O)c1cnc2c(SSc3cccc4cc(C(=O)N[C@H](C(=O)O)[C@H](C)CC)cnc34)cccc2c1)C(=O)O | 1.8 µM
O=C(Sc1cccc2cccnc12)c1ccccc1[N+](=O)[O-] | 5.27 µM
COC(=O)C[C@H](NC(=O)c1cnc2c(SSc3cccc4cc(C(=O)N[C@@H](CC(=O)OC)C(=O)OC)cnc34)cccc2c1)C(=O)OC | 3.43 µM
COc1ccc(C(=O)Sc2cccc3cccnc23)cc1OC | 9.19 µM
O=C(Sc1cccc2cccnc12)c1ccccc1OC(F)(F)F | 4.12 µM

The next lines start with the values.

IC50 | SMILES
2.46 µM | CC(C)Cc1ccc(C(=O)Sc2cccc3cccnc23)cc1
3.83 µM | O=C(Sc1cccc2cccnc12)c1ccccc1Br
3.73 µM | O=C(Sc1cccc2cccnc12)c1ccc(C(F)(F)F)cc1
4.37 µM | COc1ccc(C(=O)Sc2cccc3cccnc23)cc1
1.49 µM | COc1cccc(C(=O)Sc2cccc3cccnc23)c1
11 µM | Cc1ccccc1C(=O)Sc1cccc2cccnc12
1.18 µM | O=C(Sc1cccc2cccnc12)c1cccc(Cl)c1
> 99 µM (inactive) | N#Cc1ccc(C(=O)Sc2cccc3cccnc23)cc1
1.27 µM | Cc1cccc(C(=O)Sc2cccc3cccnc23)c1
8.43 µM | O=C(Sc1cccc2cccnc12)c1cccc(C(F)(F)F)c1
3.69 µM | O=C(Sc1cccc2cccnc12)c1ccc(F)c(F)c1
10 µM | O=C(Sc1cccc2cccnc12)c1ccc([N+](=O)[O-])cc1
15.8 µM | N#Cc1cccc(C(=O)Sc2cccc3cccnc23)c1
5.35 µM | O=C(Sc1cccc2cccnc12)c1ccc(F)cc1
3.54 µM | COc1ccc(C(=O)Sc2cccc3cccnc23)cc1F
14 µM | O=C(Sc1cccc2cccnc12)c1ccc2c(c1)OCO2
5.21 µM | O=C(Sc1cccc2cccnc12)c1ccccc1
2.66 µM | CCCc1ccc(C(=O)Sc2cccc3cccnc23)cc1
14.6 µM | Cc1ccc(C(=O)Sc2cccc3cccnc23)cc1
2.18 µM | O=C(Sc1cccc2cccnc12)c1ccccc1I
5.81 µM | O=C(Sc1cccc2cccnc12)c1ccccc1Cl
> 99 µM (inactive) | O=C(Sc1cccc2cccnc12)c1ccccc1F
